The source of these data is US20100210597A1, “C21-Deoxy Ansamycin Derivatives as Antitumor Agents” (priority 2007, published 2010).

The nature of series [1]: Water solubility assay, thermodynamic measurement. The following applies: 5% glucose, 6 hours, room temperature. The series is classed as physicochemical. The method, then:
Thermodynamic Measurements: • The appropriate amounts of compound to make solutions of the compounds at 2, 5, 10 and or 20 mM were mixed with the appropriate amounts of 5% glucose and with DMSO in brown glass vials and shaken at room temperature on an IKA® vibrax VXR shaker. After 6 hours the resulting suspensions/solutions were centrifuged for 20 min at 13200 rpm. • Aliquots of the supernatant fluid were then analysed by an Agilent 1100 HPLC coupled to a Bruker Daltonics Esquire3000 electrospray mass spectrometer (for details see specific examples herein). Chromatography was achieved over a Phenomenex Hyperclone column, BDS C18 3u (150×4.6 mm), with a linear gradient of acetonitrile:water (40:60 to 100) over 11 min at 1 mL/min. UV absorbance was monitored at λ=258 and 280 nm. • All analyses were performed in triplicate and the solubilities of individual compounds calculated by comparing their solubility in 5% glucose with an assumed solubility of 100% in DMSO.
Solubility in 2% DMSO in PBS at each time point was determined by comparing total peak areas for each chromatogram with mean total peak area for chromatograms produced from the corresponding 6 hour DMSO solutions. (Mean total peak area in DMSO solutions was assumed to be equivalent to a 0.5 mM solution). The solubility of compound 17 was measured by a thermodynamic assay as described in the general methods.

Series [2] concerns Hsp90. As to conditions: shown in WO2007/074347 (there compound 14); cited from earlier work.
The nature of series [3]: In vivo pharmacokinetic assay in mice. More on the design: species or system mouse. The following applies: female CD-1 mice. As for the experimental part: The test compound was prepared directly in endotoxin free water. A single dose of 10 mg/kg p.o. or 3 mg/kg i.v. was administered to groups of female CD1 mice (3 mice for each compound per time point). Dose volumes were 10 mL/kg for both oral and intravenous administration. At 4 minutes and 0.25, 0.5, 1, 2, 4, 8, 24 hours groups were sacrificed and plasma was collected from each mouse for further analysis. For oral dosing, a single dose of Test Article was administered via oral gavage to the mice. For intravenous dosing, a single dose of Test article was administered intravenously to mice via the tail veins.
The concentration of the relevant compounds in the plasma samples was determined by HPLC with MS detection.
• Mass spectrometer: API 3200 Q Trap triple quadruple mass spectrometer • Liquid chromatography: Agilent 1200/PAL HTC Autosampler • Ionization Mode: Electrospray (may be changed depending on the TA) • Monitoring: Multiple Reaction Monitoring • LC chromatography BetaBastic-8, 50×2.1 mm, 5 μm (may separation: be changed depending on the TA)
Based on the peak area ratios of test article to an internal standard, 17-Methoxyethylamino Geldanamycin (Schnur et al., 1995), concentrations of an unknown sample were obtained by a calibration curve.
Test plasma sample (0.05 ml), analyte free mouse whole serum (0.05 ml), internal standard solution (0.1 ml of 10 mg/mL 17-Methoxyethylamino geldanamycin (Schnur et al., 1995) dissolved in methanol) and acetonitrile (0.5 ml) were pipetted into a 2-mL polypropylene tube and the contents of the tubes were mixed for a minimum of 5 minutes (Vibrax mixer). The tubes were then centrifuged in a microfuge for a minimum of 2 minutes at 12,000 rpm. 0.1 ml of the solvent layer was transferred into a 2-mL polypropylene tube containing 1 mL acid diluent (0.1% formic acid). The tubes were then mixed for a minimum of 5 minutes (Vibrax mixer) and then centrifuged at approximately 3500 rpm for 5 minutes. The extracts were transferred to auto-sampler vials and placed in the auto sampler tray which was set at ambient temperature. The auto-sampler was programmed to inject a 0.005 ml aliquot of each extract onto the analytical column.
In vivo confirmation of the cleavage of 20 to the parent molecule, 17, was carried out as described in the general methods.
Female CD-1 mice were given single doses of 20, either intravenously at 3 mg/kg, or orally at 10 mg/kg. Plasma samples were then collected at 8 time points (0.067, 0.25, 0.5, 1, 2, 4, 8 and 24 h postdose) over a 24-h period. The amounts of 20 and 17 in the samples were then analysed. […] After iv administration, 20 was only detected up to 0.25 hours after dosing, whilst 17 was detected up to 4 hours after dosing.

Series [4] has as its system Caco-2 cells. In words: In vitro Caco-2 assay for cell permeability. The class given is in vitro ADME. As to conditions: 10 uM, 2 hour incubation. As for the experimental part: (§1) Caco-2 cells (ATCC Cat. # HTB-37) were grown on fibrillar collagen-coated, microporous, polycarbonate membranes in 24-well BioCaot™ insert plates. Following 5-day growth in Eagle's minimum essential medium supplemented with 10% FBS, the cells were exposed to BioCoat Enterocyte Differentiation Medium (BD, Cat. # 05496) for 2 days to induce enterocytic differentiation. Prior to dosing, the transepithelial electric resistance (TEER) of the Caco-2 cells in each well was measured to ensure the quality of the monolayers.
(§2) The stock solutions of test compounds were prepared at 3 mM in DMSO. Dosing solutions were prepared in the permeability assay buffer at 10 μm. The permeability assay buffer was Hank's balanced salt solution containing 10 mM HEPES at a pH of 7.4±0.2.
(§3) The Caco-2 cells were dosed with the test compounds on either apical side (for A-to-B permeation) or basolateral side (for B-to-A permeation) and incubated at 37° C. with 5% CO2 and 90% relative humidity. The testing for each compound was performed in duplicate. After 2 hour incubation, a 20-μL sample was taken from each of dosing solutions and both donor and receiver compartments. To ensure the validity of the Caco-2 assay, propranolol and vinblastine were used as a high- and a low- to medium-permeability positive control, respectively. Vinblastine also served as a P-gp substrate, tested in conjunction with a P-gp inhibitor, verapamil.
(§4) To quantify test compounds by LC/MS/MS, a related geldanamycin-like compound, 17-methoxyethylamino geldanamycin (Schnur et al., 1995), was used as the internal standard. The calculation of permeability of each compound involved only the concentration ratio of the same test compound, the concentration ratio was expressed in the peak area ratio of the test compound to the internal standard. The peak area ratio of each compound was derived by LC-MS/MS.
(§5) The apparent permeability coefficient Papp was calculated as below: […]
(§6) dCr: cumulative concentration in the receiver compartment in M. dt: duration of the assay (i.e., 7200 seconds). Vr: volume of the receiver compartment in cm^3. A: area of the cell monolayer (0.31 cm^2 for 24-well BioCoat™ plate). C0: concentration of the dosing solution in M.
(§7) The in vitro permeability of 20 and the parent 17 were assayed using caco-2 cells, as described in the general methods. All compounds were analysed at a concentration of 10 uM.
On the technique in general: Passage across Caco-2 layers is used to estimate intestinal permeability.

The nature of series [5]: In vitro Caco-2 assay for cell permeability. The series is classed as in vitro ADME. The following applies: human, Caco-2, pH 7.4, 10 uM, 2 hour incubation. As for the experimental part:
as §1, §2, §3, §4, §5, §6, §7

≈ marks a conversion by molar mass, not a printed value. Read-outs that look alike come from different tables or passages of the source.

Take `CO[C@H]1C[C@H](C)Cc2cc(O)cc(c2)NC(=O)/C(C)=C/CC[C@H](C)[C@@H](OC(N)=O)/C(C)=C/[C@H](C)[C@H]1O` [Compound 17, 4,5-dihydro-11-O-demethyl-15-demethoxy-18,21-didehydro-21-deoxomacbecin]: the solubility – broadly, how much of the substance goes into solution per volume – in series [1] is 716 µM (≈ 360 µg/mL). Also, the Hsp90 inhibition entry in series [2] is given as “potent Hsp90 inhibitor”. Also, the entries for the “detected in plasma up to (time after dosing)” value in series [3] (single intravenous dose of 20 at 3 mg/kg) and in series [3] (single oral dose of 20 at 10 mg/kg) were “up to 4 hours” and “up to 8 hours”, respectively. Besides, the “Efflux Limited” value in series [4] was “Yes (Papp (B → A)/Papp (A → B) ≧ 3, and Papp (B → A) ≧ 1.0 × 10^-6 cm/s)”. Moreover, the efflux ratio at 2 h, 10 uM in series [5] (read-out: Efflux ratio Papp(B → A)/Papp(A → B)) amounted to 6.8. For the same compound, the Papp A→B – broadly, the apparent permeability from the apical to the basolateral side of a cell layer – at 2 h, 10 uM in series [5] (read-out: Permeability Apical to Basolateral Papp(A → B) Mean) is 0.44 ×10⁻⁶ cm/s; in series [5] (read-out: Permeability Apical to Basolateral Papp(A → B) Rep. 1), 0.39 ×10⁻⁶ cm/s; in series [5] (read-out: Permeability Apical to Basolateral Papp(A → B) Rep. 2) it was 0.49 ×10⁻⁶ cm/s. For the same compound, the apparent permeability from basolateral to apical (Papp B→A) (commonly how fast a substance crosses the layer from the basolateral side) at 2 h, 10 uM in series [5] (read-out: Permeability Basolateral to Apical Papp(B → A) Mean) turned out to be 2.95 ×10⁻⁶ cm/s; in series [5] (read-out: Permeability Basolateral to Apical Papp(B → A) Rep. 1) it was 1.7 ×10⁻⁶ cm/s; in series [5] (read-out: Permeability Basolateral to Apical Papp(B → A) Rep. 2) it was 4.21 ×10⁻⁶ cm/s.
